≈ marks a conversion by molar mass, not a printed value. Where “and” joins values, the source holds several entries; their conditions need not be identical. Equal entries are not always repeated. Entries after “also recorded” stand apart in the source; their conditions may differ. Where two headings read alike, the source gives them in different places.
Tests used:
nSMase [1] = molecular target: nSMase; design: method as in PMID 21615386, PMID 17049336; details: Enzyme source: Mouse brain; cited from earlier work
SIRT1 = details: cited from earlier work
human nSMase2 [2] = molecular target: T1, human nSMase2 (Homo sapiens, UniProt Q9NY59); assay: Fluorescence (Amplex red coupled) nSMase2 activity assay; type: biochemical; design: Full length human nSMase2 cDNA with a C-terminal Flag tag; crude cell lysate used as enzyme; details: for block of human nSMase2 activity: even at 100 μM; for inhibition of human nSMase2 activity: 150 μM GW4869, 100 μM manumycin A, altenusin, zoledronic acid
T1 sequence (Q9NY59 1-655): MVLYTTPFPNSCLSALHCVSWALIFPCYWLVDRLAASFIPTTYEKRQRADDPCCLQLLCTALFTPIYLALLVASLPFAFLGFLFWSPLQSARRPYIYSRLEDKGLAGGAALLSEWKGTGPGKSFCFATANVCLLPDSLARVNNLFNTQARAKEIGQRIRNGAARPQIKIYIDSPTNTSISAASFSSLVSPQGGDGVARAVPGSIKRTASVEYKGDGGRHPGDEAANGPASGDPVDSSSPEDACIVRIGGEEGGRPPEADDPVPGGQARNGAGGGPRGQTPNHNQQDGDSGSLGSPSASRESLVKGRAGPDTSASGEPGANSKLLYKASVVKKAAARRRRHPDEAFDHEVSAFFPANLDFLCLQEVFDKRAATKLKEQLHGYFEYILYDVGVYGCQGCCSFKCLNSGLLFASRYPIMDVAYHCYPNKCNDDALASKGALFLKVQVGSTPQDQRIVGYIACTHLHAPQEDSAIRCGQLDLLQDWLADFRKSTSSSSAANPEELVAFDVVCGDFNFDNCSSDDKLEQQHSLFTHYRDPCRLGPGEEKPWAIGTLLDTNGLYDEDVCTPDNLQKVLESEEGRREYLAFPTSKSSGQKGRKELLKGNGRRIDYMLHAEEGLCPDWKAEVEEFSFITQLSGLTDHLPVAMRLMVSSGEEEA
Protocol: The production of the latter was coupled to a dephosphorylation reaction catalyzed by alkaline phosphatase (4 U/ml) to produce choline, followed by oxidation of choline by choline oxidase (0.1 U/ml) to produce betaine and H2O2, which in the presence of horseradish peroxidase (HRP, 1U/ml) and 50 μM Amplex red, generates the fluorescent molecule resorufin (Life Technologies). Substrate stock solution was prepared in 2% Triton X-100, vortexed and sonicated for 30 min. Reactions were carried out for 1 h at 37°C in 100 mM Tris-HCl pH 7.4, 10 mM MgCl2, 0.2% Triton X-100 and the generation of the fluorescent product was monitored by measuring relative florescence units (RFU) with excitation at 530 nm and emission at 590 nm (Fig 1). This assay was optimized for 384-well format (50 μl total volume per well) based on linearity of the enzymatic activity with respect to time, as well as substrate and enzyme concentrations. […] This fluorescence assay was used for compound screening and IC50 value determinations, based on duplicate eight-point dose response curves.

SIRT2 = details: cited from earlier work
[3] = system: rat primary hippocampal neurons; assay: Hippocampal neuronal survival (Hoechst 33342); type: cell-based
Protocol: All animal procedures were approved by the Johns Hopkins University Animal Care and Use Committee. Primary hippocampal neurons were prepared from day 18 decapitated embryos of Sprague-Dawley rats following previously described methods. Cells were seeded on polyethyleneimine (PEI)-coated slides in 12-well plates and cultured between 14–21 days. […] After 18 h, cells were stained with 50 μg/ml Hoeschst 33342 for 20 min and then fixed with 4% paraformaldehyde for 30 min. The number of living and apoptotic cells was determined by fluorescence microscopy. A minimum of 500 cells were counted per treatment condition. Results were normalized to control untreated cells and were representative of at least two independent experiments conducted in triplicate. Statistical evaluation of the data was done by Student’s t-test.

nSMase [4] = molecular target: nSMase; design: method as in PMID 21615386, PMID 17049336; details: cited from earlier work
[5] = in DMSO; cited from earlier work
Solubility = type: physicochemical; details: cambinol compared to GW4869
nSMase [6] = system: nSMase; design: method as in PMID 21615386, PMID 17049336; details: cited from earlier work; remark: listed apart in the source
human nSMase2 [7] = molecular target: T1, human nSMase2; assay: 14C-SM confirmatory direct activity assay; type: biochemical; design: Full length human nSMase2 cDNA with a C-terminal Flag tag; host or cells: HEK293, stably transfected; crude cell lysate used as enzyme
Protocol: This assay was dependent on the direct hydrolysis of ^14C-labeled SM (^14C N-methyl groups in the phosphorylcholine) by human nSMase2. Optimization of assay conditions was accomplished according to the methods of Barbone et al.. Briefly, bovine [N-methyl-^14C]-sphingomyelin (specific activity […], Perkin Elmer) and phosphatidylinositol (Avanti Polar Lipids) were evaporated to dryness under a stream of nitrogen and resuspended at an equimolar concentration of 0.1 mM in water with 0.5% Triton X-100 (Sigma). The solution was vortexed for 30 min and then sonicated for 30 min. Assay conditions were as follows: 50 μl total volume per reaction, consisting of 20 μM SM, reaction buffer (100 mM Tris-HCl pH 7.5, 80 mM MgCl2, 0.1% Triton X-100); 10 μl cell lysate containing recombinant human nSMase2 (0.5–1 μg protein/assay) and 5 μl of compound in reaction buffer containing 10% DMSO. After 1 h incubation at 37°C the reaction was terminated by the addition of 30 μl of water and 175 μl of chloroform/methanol (2:1, v:v), followed by vigorous vortexing. Tubes were centrifuged for 5 min at 10,000 xg at room temperature to separate the organic bottom phase containing labeled SM and the aqueous upper phase containing ^14C-labeled-phosphorylcholine. An aliquot (50 μl) of the upper phase was transferred to a vial with 10 ml of scintillant and counted for 2 min on a Beckman LS-6000IC scintillation counter. Enzyme activity was directly proportional to the disintegrations per min (dpm) resulting from the generation of ^14C-phosphorylcholine.

## CCCCCCCCCCC=NNC(=N)N [C11AG]
nSMase [1]
  IC50: 8 µM

## NC(=O)[C@H]1CCCCc2c1[nH]c1ccc(Cl)cc21 [CHIC-35, reference compound]
SIRT1
  IC50: […]
Human nSMase2 [2]
  block of human nSMase2 activity: not possible to block
Human nSMase2 [2]; fluorescence nSMase2 assay (S2 Fig)
  IC50: 70 µM
SIRT2
  IC50: 19.6 µM
[3]; 100 ng/ml TNFα, 200 nM compound
  neuron survival, Mean (normalized to control untreated cells): 71.88
[3]; No TNFα, 200 nM compound
  neuron survival, Mean (normalized to control untreated cells): 62.07

## O=C(/C=C\c1ccc(/C=C\C(=O)Nc2ccc(C3=NCCN3)cc2)cc1)Nc1ccc(C2=NCCN2)cc1 [GW4869, reference compound]
Human nSMase2 [2]; 150 µM (nominal)
  modulation of enzymatic activity (Fig 3C raw data): 59.6 RFU and 72.8 RFU and 57.5 RFU and 70.4 RFU
Human nSMase2 [2]
  inhibition of human nSMase2 activity: possible to inhibit enzyme activity; also recorded: inhibition
nSMase [4]; Enzyme source: Rat brain
  IC50: 1000 nM
nSMase [4]
  MOI: Non- competitive
[5]
  solubility: 0.2 mg/mL (≈ 396 µM)
Solubility
  aqueous solubility: low

## CCCC[C@@H](C)/C=C(C)/C=C(\C)C(=O)NC1=C[C@@](O)(/C=C/C=C/C=C/C(=O)NC2=C(O)CCC2=O)[C@@H]2O[C@@H]2C1=O [Manumycin A, reference compound]
Human nSMase2 [2]
  inhibition of human nSMase2 activity: inhibition
nSMase [6]
  MOI: Irreversible

## CCCCn1c(-c2ccccc2)c(Cc2c(O)ccc3ccccc23)c(=O)[nH]c1=S [compound 4]
Human nSMase2 [7]; SAR
  human nSMase2 inhibitory activity of analog vs cambinol: loss of activity; also recorded: eliminated
Human nSMase2 [7]; [14C]-SM direct activity assay, human recombinant enzyme
  IC50: > 100 µM
SIRT2
  potency and specificity against SIRT 2 vs cambinol: significantly improved

## CC(NC(=O)c1ccccc1/N=C/c1c(O)ccc2ccccc12)c1ccccc1 (centres unmarked) [sirtinol, reference compound]
SIRT1
  IC50: […]
Human nSMase2 [2]
  block of human nSMase2 activity: not possible to block
SIRT2
  IC50: […]
[3]; 100 ng/ml TNFα, 40 µM compound
  neuron survival, Mean (normalized to control untreated cells): 60.73
[3]; No TNFα, 40 µM compound
  neuron survival, Mean (normalized to control untreated cells): 53.3

From PMC4444023 (PLoS ONE, 2015)
